{"source": "patent US7179645B2", "about": "(priority 2002, dated 2007)", "key": {"[1]": {"tested_on": "C3H/HeJ mice (H-2^k); antibodies against the PGCC(95–104) epitope peptide", "conditions": "mouse, in vivo"}, "[2]": {"tested_on": "C3H/HeJ mice (H-2^k); antibodies against the PGCC(95–104) epitope peptide", "conditions": "mouse, in vivo", "remark": "listed apart in the source"}, "SJL/J (H-2s) mice": {"tested_on": "SJL/J (H-2s) mice", "conditions": "mouse, in vivo; cited from earlier work"}, "mice": {"tested_on": "mice", "conditions": "mouse, in vivo; cited from earlier work"}}, "note": "Read-outs that look alike come from different tables or passages of the source. [ ]: non-standard residue; d: D form. ava = not defined here"}
{"substance": "Ac-LRMK-ava-IAYLKQATAK-NH2 (Ac-LRMK[ava]IAYLKQATAK-NH2; reading uncertain; also: printed as Ac-LRMK-ava-IAYLKQATAK-NH2) [Ii-Key/PGCC]", "values": [{"measurement": "Antibody induction (ELISA), Dilution^−1 1620", "setting": "[1]", "result": 0.071}, {"measurement": "Antibody induction (ELISA), Dilution^−1 4860", "setting": "[1]", "result": 0.024}, {"measurement": "antibody titers against PGCC epitope", "setting": "[1]", "result": "Significantly greater antibody titers"}, {"measurement": "antibody titers against PGCC epitope", "setting": "[2]", "result": "Significantly greater antibody titers"}]}
{"substance": "HCLGKWLGHPDKFVGI [PL139–154]", "values": [{"measurement": "mice with severe clinical and histological EAE", "setting": "SJL/J (H-2s) mice", "result": "3 of 20"}]}
{"substance": "MOG35–55", "values": [{"measurement": "encephalitogenic potential (specific T-cell responses, EAE)", "setting": "mice", "result": "induced specific T-cell responses and EAE"}]}
